Data set [1] concerns Hedgehog signaling pathway. Kind of data set: Gli luciferase reporter assay in Gli Reporter-NIH3T3 cells (mShh stimulated). In kind it is cell-based. Conditions: mShh 1 μg/ml, 27 hours, read-out: IC50 for inhibition of the Hedgehog signaling pathway. The procedure:
Hedgehog signaling pathway Gli Reporter-NIH3T3 cells were cultured in DMEM medium with 10% Calf serum, 1% Penn-strep, 500 μg/ml of Geneticin.
To perform the Gli luciferase reporter assay, Gli Reporter—NIH3T3 cells were seeded at 25,000 cells per well into white clear-bottom 96-well microplate in 100 μl of growth medium. Cells were incubated at 37° C. and 5% CO2 for overnight. Next day remove the medium from wells and add 45 μl of diluted inhibitor in assay medium (Opti-MEM Reduced Serum Medium+0.5% calf serum+1% non-essential amino acids+1 mM Na-pyruvate+10 mM HEPES+1% Pen/Strep) per well. Incubate cells at 37° C. in a CO2 incubator for 2 hours. Then add 5 μl of diluted mShh in assay medium to wells (final [mShh]=1 μg/ml). Add […] of assay medium to cell-free control wells. Cells were treated for 27 hours. […] Luminescence was measured using a luminometer (BioTek Synergy™ 2 microplate reader)
Reporter assays in triplicate were performed at each concentration. The luminescence intensity data were analyzed using the computer software, Graphpad Prism. In the absence of the compound, the luminescence intensity (Lt) in each data set was defined as 100%. In the absence of cells, the luminescence intensity (Lb) in each data set was defined as 0%. […]
Background: Reporter assays use an easily measured gene product as a stand-in for the process of interest.

In data set [2] the test system is A431 xenograft. Type of data set: in vivo, BALB/c nude mice. The procedure:
(§1) NCI-H2122 cells were cultured in RMPI1640 medium, A431 tumor cells cultured in DMEM medium, all the medium were supplemented with 10% heat inactivated fetal bovine serum, all cells used EDTA containing trypsin, passaged twice a week, incubated at 37° C. in an atmosphere of 5% CO2 in air and cultured.
(§2) 110 BALB/c nude mice, female, 6-8 weeks old, 18-22 g in body weight, were purchased from Shanghai Laboratory Animal Center (SLAC, Shanghai, China). The mice were kept in individually ventilated cage (IVC) systems at constant temperature and humidity, with 20.5-24.5° C. for temperature, 40-75% for humidity. With 4 animals in each cage, the size ogf the cage is 325 mm×210 mm×180 mm. The bedding material is corn cob, which is changed twice per week. Animals had free access to irradiation sterilized dry granule food and water during the entire study period. The food and water were changed twice per week. The identification labels for each cage contain the following information: number of animals, sex, strain, and date received treatment, study number, group number, and the starting date of the treatment. Animals were marked by ear coding. The experiments started one week after receiving the animals.
(§3) Each mouse were inoculated subcutaneously at the right flank region with NCI-H2122 tumor cells (5×10^7/ml), NCI-H1703 tumor cells (1×10^8/ml) and A431 tumor cells (5×10^7/ml), respectively in a mixture of phosphate-buffered saline and matrigel for tumor development via a 1 ml syringe. The treatments were started when the mean tumor size reached about 200 (150-250) mm^3.
(§4) To avoid errors between groups, the animals were first grouped by the tumor volumes according to the tumor volume measurements, and then randomly re-assigned to different groups.
(§5) During the study, the care and use of animals were conducted in accordance with the regulations of the Association for Assessment and Accreditation of Laboratory Animal Care (AAALAC). After tumor cell inoculation, the animals were checked daily for morbidity and mortality. At the time of routine monitoring, the animals were checked for any effects of tumor growth and treatments on normal behavior such as mobility, visual estimation of food and water consumption, body weight gain/loss, eye/hair matting and any other abnormal effect.
(§6) After tumor volume reached 3000 mm^3 or average tumor volume reached 2000 mm^3, before experimental animals emaciated or coma, anesthesia and euthanasia will be performed. During the experiment, if the weight loss of experimental animal reaches 20%, administration will be discontinued and experimental animals will be observed until the weight returned to 10% range before restart of the administration. In this experiment, when the mean tumor volume reached 2000 mm^3 or at the end of 59 days after the administration, experimental animals will be anesthesiaed to collect tumor mass which will be weighed and photographed.
(§7) • 8.1 Tumor size was measured twice weekly in two dimensions using a caliper, and the volume was expressed in mm^3 using the formula: V=0.5 a×b^2 where a and b are the long and short diameters of the tumor, respectively. • 8.2 T/C, percent value, T and C were the mean volume of the treated and control groups, respectively, on a given day. • 8.3 T−C, calculated with T as the time (in days) required for the mean tumor size of the treatment group to reach a predetermined size, and C was the time (in days) for the mean tumor size of the control group to reach the same size. • 8.4 (1−((Td−T0)/(Cd−C0)))×100% value (in percent) was an indication of antitumor effectiveness, Td and Cd were the mean tumor volumes of the treated and vehicle control animals on a given day and T0 and C0 were the mean tumor volumes of the treated and vehicle control animals at the start of the experiment. • 8.5 Tumor mass weight was measured at the end of study. 9. Statistical Analysis
(§8) A one-way analysis of variance was performed followed by multiple comparison procedures. […]

In data set [3] the test system is NCI-H2122 lung cancer xenograft. Type of data set: in vivo, BALB/c nude mice. The procedure: as §1, §2, §3, §4, §5, §6, §7, §8
For data set [4], the system named is BXPC-3 human pancreatic carcinoma xenograft. Briefly: BXPC-3 xenograft tumor model, subcutaneous. In kind it is in vivo, BALB/c nude mice. The procedure:
as §7
A one-way analysis of variance was performed followed by multiple comparison procedures. All data was analyzed using SPSS 18.0. *p<0.05 or **P<0.01 are generally considered statistically significant when compared with vehicle group.
BXPC-3 tumor cells cultured in RMPI1640 medium supplemented with 10% heat inactivated fetal bovine serum, all cells used EDTA containing trypsin, passaged twice a week, incubated at 37° C. in an atmosphere of 5% CO2 in air and cultured.
BALB/c nude mice, female, 6-8 weeks old, 18-22 g in body weight, were purchased from Shanghai Laboratory Animal Center (SLAC, Shanghai, China).
Each mouse was inoculated subcutaneously at the right flank region with BXPC-3 tumor cells (5×10^7) in 0.1 ml of phosphate-buffered saline with matrigel via a 1 ml syringe for tumor development. The treatments were started when the mean tumor size reaches approximately 200 (150-250) mm^3 at 9 days after inoculation.
Randomized grouping, observations, aseptic, data processing, measurement and statistical analysis are as described in Example 3.

Data set [5] is described as follows: Pharmacokinetic study of jervine in mice. In kind it is in vivo. The conditions noted are these: CD-1 mice, PO 10 mg/Kg. The procedure: Orally dosed: A total of 3 male experimental CD-1 mice, approximately 8 weeks of age at receipt was administered jervine via oral gavage at 10 mg/kg. Blood samples (300 μL) were collected via cardiac puncture predose and at 2 minute, 5 minute, 15 minute, 0.5 hour, 1 hour, 2 hour, 4 hour, 8 hour, 24 hours postdose. Plasma was made form the blood samples in order to measure the concentration of jervine.

Data set [6] can be described thus: MTD study of jervine. Type of data set: in vivo, BALB/c nude mice. The conditions noted are these: 14 days. The procedure: 9 BALB/c nude mice were divided equally into 3 groups. The mice were orally dosed at 50 mg/kg, 80 mg/kg and 150 mg/kg by groups. […] It was initially determined that the MTD is higher than 80 mg/kg for BALB/c nude mice.

Each structure is given as a SMILES string. “Also recorded” adds a separate entry of the source. Where two headings read alike, the source gives them in different places.

As for `CC1=C2C(=O)[C@H]3[C@@H](CC=C4C[C@@H](O)CC[C@@]43C)[C@@H]2CC[C@]12O[C@@H]1C[C@H](C)CN[C@H]1[C@H]2C` [jervine], the IC50 (in general, the concentration that inhibits the measured activity by half) in data set [1] was determined as 50 nM. Further, the T/C value is 0.52 in data set [2] (A431, 40 mg/kg p.o. QD × 21 days); 0.80 in data set [2] (A431, 60 mg/kg p.o. QD × 21 days); 0.82 in data set [2] (A431, 80 mg/kg p.o. QD × 21 days); 0.79 in data set [3] (NCI-H2122, 40 mg/kg p.o. QD × 21 days); 0.701 in data set [3] (NCI-H2122, 60 mg/kg p.o. QD × 21 days); 0.594 in data set [3] (NCI-H2122, 80 mg/kg p.o. QD × 21 days). In addition, the T/C value is 25.8% in data set [4] (BXPC-3, 20 mg/kg iv QD × 21 days); 59.1% in data set [4] (BXPC-3, 40 mg/kg iv QD × 21 days); 54.2% in data set [4] (BXPC-3, 80 mg/kg iv QD × 21 days). Moreover, in data set [4] (BXPC-3 xenograft), the “tumor growth inhibition (in words)” value is listed as “significantly inhibit the growth of these three tumors; also recorded: effectively inhibit the tumor growth”. For the same compound, the “side effects / weight loss of the mice” value in data set [4] (BXPC-3 xenograft, during administration) was “no obvious side effects such as weight lose was observed; also recorded: no significant of weight lose”. The “F (bioavailability)” value in data set [5] came to 41.2%. Moreover, the mortality result in data set [6] (50 mg/kg oral) is “no animal dead”; in data set [6] (80 mg/kg oral), “no animal die”; in data set [6] (80 mg/kg oral, listed as Jervine), “no animal dead”; in data set [6] (150 mg/kg oral), “Two mice in the 150 mg/kg treatment group were dead”. Further, in data set [6] (80 mg/kg oral gavage), the “general condition of the mice” value was “all mice were in good condition”. For the same compound, in data set [6] (80 mg/kg oral gavage), the weight loss entry was “no significant weight loss”.

The values are drawn from US11111267B2 (priority 2020, dated 2021).
